From patent EP1149106B1, “4,5-AZOLO-OXINDOLES” (F. HOFFMANN-LA ROCHE AG, priority 1998, dated 2000)

These compounds were tested against T1, Cyclin E/CDK2 (Homo sapiens, UniProt P24941) (assay: CDK2 FlashPlate Assay (Rb phosphorylation, 33P-ATP)). Details: Concentration 0.5 µM.
T1 construct: made in house; host or cells: insect cells
Type: biochemical
Protocol: To determine inhibition of CDK2 activity, purified recombinant retinoblastoma (Rb) protein was coated on 96 well FlashPlates (New England Nuclear, Boston, MA). Rb is a natural substrate for phosphorylation by CDK2 (Herwig and Strauss Eurr. J. Biochem., Vol. 246 (1997) pp. 581-601 and references therein). Recombinant active human Cyclin E/CDK2 complexes were partially purified from extracts of insect cells. The active Cyclin E/CDK2 was added to the Rb-coated FlashPlates along with ^33P-ATP and dilutions of test compounds. Plates were incubated for 25 minutes at room temperature with shaking, then washed and counted in the Topcount scintillation counter (Packard Instrument Co., Downers Grove, IL). Dilutions of test compounds were tested in duplicate in each assay. The percent inhibition of Rb phosphorylation, which is a measure of the inhibition of CDK2 activity, was determined according to the following formula: [formula] where "test compound" refers to the average counts per minute of the test duplicates, "nonspecific" refers to the average counts per minute when no Cyclin E/CDK2 was added, and "total" refers to the average counts per minute when no compound was added.

Compound	inhibition at 0.5 µM [%]
COc1cc[nH]c1/C=C1\C(=O)Nc2ccc3[nH]c(NCCCc4ccccc4)nc3c21 [XX, (Z)-8-[(3-Methoxy-1H-pyrrol-2-yl)methylene]-2-[N-(3-phenylpropyl)amino]-3,6,7,8-tetrahydro-pyrrolo[3,2-e]benzimidazol-7-one]	< 50
COc1cc[nH]c1/C=C1\C(=O)Nc2ccc3[nH]c(Nc4cccc(C(C)=O)c4)nc3c21 [BB, (Z)-2-[N-(3-Acetylphenyl)amino]-8-[(3-methoxy-1H-pyrrol-2-yl)methylene]-3,6,7,8-tetrahydro-pyrrolo[3,2-e]benzimidazol-7-one]	< 50
COc1ccc(Nc2nc3c4c(ccc3[nH]2)NC(=O)/C4=C\c2[nH]ccc2OC)cc1OC [Y, (Z)-2-[N-(3,4-Dimethoxyphenyl)amino]-8-[(3-methoxy-1H-pyrrol-2-yl)methylene]-3,6,7,8-tetrahydro-pyrrolo[3,2-e]benzimidazol-7-one]	< 50
COc1ccccc1Nc1nc2c3c(ccc2[nH]1)NC(=O)/C3=C\c1[nH]ccc1OC [II, (Z)-2-[N-(2-Methoxyphenyl)amino]-8-[(3-methoxy-1H-pyrrol-2-yl)methylene]-3,6,7,8-tetrahydro-pyrrolo[3,2-e]benzimidazol-7-one]	< 50
COc1cc[nH]c1/C=C1\C(=O)Nc2ccc3[nH]c(NCc4ccc5c(c4)OCO5)nc3c21 [VV, (Z)-2-[N-(1,3-Benzodioxol-5-yl)methylamino]-8-[(3-methoxy-1H-pyrrol-2-yl)methylene]-3,6,7,8-tetrahydro-pyrrolo[3,2-e]-benzimidazol-7-one]	< 50
COc1cc[nH]c1/C=C1\C(=O)Nc2ccc3[nH]c(Nc4ccc5c(c4)CCC5)nc3c21 [YY, (Z)-2-[N-(2,3-Dihydro-1H-inden-5-yl)amino]-8-[(3-methoxy-1H-pyrrol-2-yl)methylene]-3,6,7,8-tetrahydro-pyrrolo[3,2-e]-benzimidazol-7-one]	< 50
COc1cc[nH]c1/C=C1\C(=O)Nc2ccc3[nH]c(NCc4cccc5ccccc45)nc3c21 [WW, (Z)-8-[(3-Methoxy-1H-pyrrol-2-yl)methylene]-2-[N-(1-naphthalenyl)methylamino]-3,6,7,8-tetrahydro-pyrrolo[3,2-e]-benzimidazol-7-one]	< 50
COc1cc[nH]c1/C=C1\C(=O)Nc2ccc3[nH]c(NCCCCc4ccccc4)nc3c21 [JJ, (Z)-8-[(3-Methoxy-1H-pyrrol-2-yl)methylene]-2-[N-(4-phenylbutyl)amino]-3,6,7,8-tetrahydro-pyrrolo[3,2-e]benzimidazol-7-one]	< 50
COC(=O)c1ccc(Nc2nc3c4c(ccc3[nH]2)NC(=O)/C4=C\c2[nH]ccc2OC)cc1 [EE, (Z)-4-[[8-[(3-Methoxy-1H-pyrrol-2-yl)methylene]-7-oxo-3,6,7,8-tetrahydro-imidazo[4,5-e]indol-2-yl]amino]-benzoic acid methyl ester]	< 50
CCOC(=O)c1ccc(Nc2nc3c4c(ccc3[nH]2)NC(=O)/C4=C\c2[nH]ccc2OC)cc1 [CC, (Z)-4-[[8-[(3-Methoxy-1H-pyrrol-2-yl)methylene]-7-oxo-3,6,7,8-tetrahydro-imidazo[4,5-e]indol-2-yl]amino]-benzoic acid ethyl ester]	< 50
COc1ccc(Nc2nc3c4c(ccc3[nH]2)NC(=O)/C4=C\c2[nH]ccc2OC)cc1 [Z, (Z)-2-[N-(4-Methoxyphenyl)amino]-8-[(3-methoxy-1H-pyrrol-2-yl)methylene]-3,6,7,8-tetrahydro-pyrrolo[3,2-e]benzimidazol-7-one]	< 50

Same assay, conditions: recombinant human Cyclin E/CDK2, Rb substrate, 25 minutes at room temperature

Compound	IC50 [µM]
COc1ccc(Cc2nc3c4c(ccc3[nH]2)NC(=O)/C4=C\c2[nH]ccc2OC)cc1 [T, (Z)-2-[(4-Methoxyphenyl)methyl]-8-[(3-methoxy-1H-pyrrol-2-yl)methylene]-3,6,7,8-tetrahydro-pyrrolo[3,2-e]benzimidazol-7-one]	< 3.5
Cc1nc[nH]c1/C=C1\C(=O)Nc2ccc3[nH]cnc3c21 [SS]	< 3.5
COCCCNc1nc2c3c(ccc2[nH]1)NC(=O)/C3=C\c1[nH]ccc1OC [X, (Z)-2-[N-(3-Methoxypropyl)amino]-8-[(3-methoxy-1H-pyrrol-2-yl)methylene]-3,6,7,8-tetrahydro-pyrrolo[3,2-e]benzimidazol-7-one]	< 3.5
Cc1nc[nH]c1/C=C1\C(=O)Nc2ccc([N+](=O)[O-])c(F)c21 [OO, (Z)-1,3-Dihydro-4-fluoro-3-[(4-methyl-1H-imidazol-5-yl)methylene]-5-nitro-2H-indol-2-one]	< 3.5
COc1cc[nH]c1/C=C1\C(=O)Nc2ccc3[nH]c(C(O)c4ccccc4)nc3c21 (racemic) [U, rac-(Z)-2-(1-Hydroxy-1-phenyl-methyl)-8-[(3-methoxy-1H-pyrrol-2-yl)methylene]-3,6,7,8-tetrahydro-pyrrolo[3,2-e]benzimidazol-7-one]	< 3.5
Cc1nc[nH]c1/C=C1\C(=O)Nc2ccc([N+](=O)[O-])c(N=[N+]=[N-])c21 [PP, (Z)-4-Azido-1,3-dihydro-3-[(4-methyl-1H-imidazol-5-yl)methylene]-5-nitro-2H-indol-2-one]	< 3.5
COc1cc[nH]c1/C=C1\C(=O)Nc2ccc3[nH]c(CCc4ccc(O)cc4)nc3c21 [V, (Z)-2-[2-(4-Hydroxyphenyl)ethyl]-8-[(3-methoxy-1H-pyrrol-2-yl)methylene]-3,6,7,8-tetrahydro-pyrrolo[3,2-e]benzimidazol-7-one]	< 3.5
COc1cc[nH]c1/C=C1\C(=O)Nc2ccc3[nH]c(Nc4ccc(N(C)C)cc4)nc3c21 [DD, (Z)-2-[N-(4-Dimethylaminophenyl)amino]-8-[(3-methoxy-1H-pyrrol-2-yl)methylene]-3,6,7,8-tetrahydro-pyrrolo[3,2-e]-benzimidazol-7-one]	< 3.5
O=C1Nc2ccc3[nH]c(-c4ccccc4)nc3c2/C1=C/c1ccc[nH]1 [O, (Z)-2-Phenyl-8-[(1H-pyrrol-2-yl)methylene]-3,6,7,8-tetrahydro-pyrrolo[3,2-e]benzimidazol-7-one]	< 3.5
COc1cc[nH]c1/C=C1\C(=O)Nc2ccc3[nH]c(-c4ccccc4)nc3c21 [Q, (Z)-8-[(3-Methoxy-1H-pyrrol-2-yl)methylene]-2-phenyl-3,6,7,8-tatrahydro-pyrrolo[3,2-e]benzimidazol-7-one]	< 3.5
COc1cc[nH]c1/C=C1\C(=O)Nc2ccc3[nH]c(CCCc4ccccc4)nc3c21 [W, (Z)-2-[3-(Phenyl)propyl]-8-[(3-methoxy-1H-pyrrol-2-yl)methylene]-3,6,7,8-tetrahydro-pyrrolo[3,2-e]benzimidazol-7-one]	< 3.5
COc1cc[nH]c1/C=C1\C(=O)Nc2ccc3nc[nH]c3c21 [TT, (Z)-8-[(3-Methoxy-1H-pyrrol-2-yl)methylene]-3,6,7,8-tetrahydro-pyrrolo-[3,2-e]benzimidazol-7-one]	< 3.5
COc1cc[nH]c1/C=C1\C(=O)Nc2ccc3[nH]c(NC(C)c4ccccc4)nc3c21 (racemic) [HH, rac-(Z)-8-[(3-Methoxy-1H-pyrrol-2-yl)methylene]-2-[N-(1-phenylethyl)amino]-3,6,7,8-tetrahydro-pyrrolo[3,2-e]benzimidazol-7-one]	< 3.5
Cc1nc[nH]c1/C=C1\C(=O)Nc2ccc(N)c(N)c21 [RR, (Z)-4,5-Diamino-1,3-dihydro-3-[(4-methyl-1H-imidazol-5-yl)methylene]-2H-indol-2-one]	< 3.5
